Counter-ions that a name gives are not always drawn.
How the values were obtained:
[1] = test system: asthmatics; details: cited from earlier work
[2] = test system: patients with stable COPD; assay: BCSS (breathlessness, cough and sputum score) change from baseline in Viozan clinical trials, stratified by ADRB2 haplotype; assay type: in vivo, human
Source text: (§1) Samples for genotyping were taken from 2450 patients recruited in four Viozan™ phase III clinical trials, namely SC-397-5097, SC-397-5098, SC-397-5099 and SC-397-5163. The patient population included male and female patients, aged 40 to 80 years, with stable COPD, symptoms for ≧2 years, and a smoking history of at least 15 pack years. […] Further details about the patient population, and the study designs, are described in Laursen et al. Respiratory Medicine (2003), Vol 97, Suppl A, S23-S33. Participation in the genetics sub-study was voluntary. Patients gave separate written informed consent for the genetic analysis. Patients all consented to provide DNA for use in studying the response to Viozan™. Viozan™ is a dual agonist, targeting the β2-adrenergic receptor and the […] genes, developed for the treatment of COPD (Rennard, 2003, Respiratory Medicine, Vol 97, Suppl A, S1-S2).
Changes in COPD symptoms were assessed using the BCSS (breathlessness, cough and sputum score), also referred to as the TSS (total symptom score). Each symptom, that is breathlessness, cough and sputum, was evaluated daily by the patient and recorded in a diary using a 5-point Likert scale (ranging from 0 to 4, with the higher values indicating more sever symptoms). The three item scores were summed to calculate the BCSS total score, resulting in a value between 0 and 12. The reliability and validity of the BCSS for evaluating symptoms in COPD is discussed in Leidy et al, 2003, Respiratory Medicine, Vol 97, SupplA, S59-S70. A mean change of ±1 point on the BCSS total score represents a substantial improvement in symptom severity for patients with moderate to severe COPD (Celli et al. Respiratory Medicine, (2003) Vol 97, SupplA, S35-43).

[3] = test system: patients with stable COPD; assay: Serial and pre-dose FEV1 (spirometry) in Viozan phase III clinical trials, stratified by ADRB2 haplotype; assay type: in vivo, human
Source text: as §1
Pre- and post-dose FEV1 (forced expiratory volume in 1 second), the volume of air exhaled in the first second of the FVC manoeuvre (expressed in litres), measurements were taken at each study visit for all patients, as described in the clinical study protocols. Spirometry measurements were performed using a standard technique at each centre. Details about the spirometer used and the calibration records were provided by each centre. After resting for 15 minutes, slow vital capacity (SVC), forced vital capacity (FVC) and FEV1 were measured for at least three separate manoeuvres. The greatest values for each parameter were recorded.
Serial measurements were taken on day 1 (studies SC-397-5097 and SC-397-5098), weeks 8 and 12 (SC-397-5098) and weeks 14 and 26 (SC-397-5097). The AUC0-8, mean FEV1 at 8 hrs and mean maximum change from pre-dose (FEV1 max) were calculated. These measurements were used to investigate the bronchodilator properties of Viozan™, a long-acting β2-agonist.
Because serial FEV1 measurements were available for only a small number of subjects, and to increase the power of the analyses, the data was subsequently analysed in two subgroups (‘binning’) based on the haplotype pair of each patient; “C” haplotypes (i.e. patients having at least one copy of the ‘C’ haplotype) and “non-C” haplotype (i.e. patients having no ‘C’ haplotype). ‘C’ haplotype group included patients with haplotypes AC, BC and CC, whilst the non-C haplotype group included subjects with haplotypes AA, BB and AB. For the ‘binned’ haplotype analyses, subjects with one or more copies of haplotype D and E were not included, as there were few subjects with these haplotype pairs.
Assessment of the relationship between ADRB2 haplotype and the long-term FEV1 response, was achieved by comparing the pre-treatment and pre-dose baselines. The “pre-treatment” FEV1 baseline is for no prior exposure to the study drug, and was measured at day 1 (visit 2), immediately prior to treatment with Viozan™. The “pre-dose” FEV1 baseline is that measured prior to administration of drug on that day at subsequent visits, during the course of the trials, i.e. at weeks 8 and 12 (SC-397-5098) and weeks 14 and 26 (SC-397-5097). […] Observations are consistent with a trend for prolonged bronchodilation in the C haplotype subgroup and better overall long-term lung function in response to regular treatment with Viozan™ and long acting β2-agonists.
Analysis of the serial FEV1 response between first treatment and following 3 months of Viozan™ treatment was determined by subtracting the pre-treatment baseline (visit 2) from the absolute FEV1 measurements collected at visit 2 (day 1) and the combined data for week 12 (SC-397-5098) and week 14 (SC-397-5097). […] Serial FEV1 response at day 1 (visit 2) overlaps with that at 3 months post treatment, for patients in the ‘C’ haplotype subgroup. A similar response is observed for the non-C haplotype group at day 1 (visit 2). However, the serial FEV1 response, in the non-C haplotype group, appears to be reduced after 3 months of treatment. […]

[4] = 3 mth (SC-397-5098) and 6 mth (SC-397-5097) treatment, trend
[5] = first exposure, trials SC-397-5097 and SC-397-5098

Row | Compound | lung function response, 2/2 haplotype ([1]; 2/2 corresponds to AA) | lung function response, 4/4 haplotype ([1]; 4/4 corresponds to BB) | lung function response, 4/6 haplotype ([1]; 4/6 corresponds to BC) | patients with a clinically significant BCSS response compared to mean placebo response ([2]; C-haplotype group share of the clinical trial population) | BCSS response in C haplotype sub-group versus non-C haplotype group and versus placebo ([2]; change from baseline to final 4 weeks, combined SC-397-5163 and SC-397-5098) | reduction in mean BCSS, 'C' Haps (AC, BC, CC) compared to 'Non-C' Haps (AA, BB, BA) ([2]; combined studies SC-397-5163 and SC-397-5098) | BCSS response in C haplotype sub-group versus non-C haplotype subgroup ([2]; study SC-397-5163, 3 month, C Haps N=84, non-C Haps N=201) | difference in mean BCSS change from baseline to final 4 weeks of treatment, Viozan versus placebo ([2]; unstratified patient population) | change in baseline (trough) FEV1 over the course of the trials, C-haplotype sub-group [3, 4] | change in baseline (trough) FEV1 over the course of the trials, subjects lacking C-haplotype [3, 4] | serial FEV1 response after 3 months of treatment, non-C haplotype group ([3]; change from pre-treatment baseline, combined week 12 and week 14 data, versus day 1) | time after treatment at which FEV1 response was observed [3, 5] [min] | time for which FEV1 continued to increase post treatment [3, 5] | time of maximum FEV1 increase post study drug [3, 5] | serial FEV1 response, patients with BB haplotype pair ([3]; first exposure, BB (N=13), compared with other haplotype pairs) | serial FEV1 response, patients with BC haplotype ([3]; first exposure, BC (N=21)) | difference in FEV1 between subgroups stratified by ADRB2 haplotype pair ([3]; serial FEV1 at first exposure, haplotype pairs AA, AC, BA, BB, BC)
1 | CC(C)(C)NCC(O)c1ccc(O)c(CO)c1 (centres unmarked) [albuterol, albuterol sulphate] | intermediate response | lowest response | best response |  |  |  |  |  |  |  |  |  |  |  |  |  | 
2 | O=c1[nH]c2c(O)ccc(CCNCCS(=O)(=O)CCCOCCc3ccccc3)c2s1 [Viozan, Sibenadet HCl] |  |  |  | approximately 30% | significantly better | up to 0.6 | significantly better | neither statistically significant, nor considered to be of clinical importance | increase | decrease slightly | reduced | 5 | up to 2 hours | one to two | smaller | greatest response | approximately 100 cc

From patent US20080176224A1, “Methods for Identifying a Patient as a Candidate for Treatment with a Long Acting Beta Agonist and for Predicting a Patient's Response to Long Acting Beta2 Agonist Therapy by Analysing Polymorphisms in the Beta2-Adrenergic Receptor Gene” (ASTRAZENECA AB, priority 2004, published 2008)
